pIC50: −log10 of the molar value.
Test system: 454973-116-R2-J3-PDC complex spheroid viability
Assay: Anticancer human tumor 454973-116-R2-J3-PDC patient-derived pancreatic carcinoma cell line growth inhibition [POLQ]
Details: for pIC50: curve of first compound; for viability, T/C: stronger effect = lower value; active = viability on the fitted dose curve at most 10% of control; inactive = the rest
Procedure: Multicellular complex tumor spheroid response to Polymerase (POL) inhibitors (novobiocin, ART-558, RP6685) in combination with a variety of drugs and investigational agents in selected tumor cell lines
The POL inhibitors (novobiocin, ART-558, and RP6685) were evaluated both individually and in combination with standard of care and investigational anticancer small molecules within a complex spheroid model of solid tumors. . Complex spheroids include a stromal component modeled by human endothelial cells (HUVEC) and fibroblasts modeled by human mesenchymal stem cells (MSCs). The concentration ranges selected for each drug and investigational agent were based upon clinically achievable concentrations if the clinical Cmax of the agent was known.
Compounds. The drugs and investigational agents: novobiocin (NSC847541), ART-558 (NSC835418), RP-6685 (NSC848927), peposertib (NSC802822), ceralasertib (NSC780249), elimusertib (NSC800525), camonsertib (NSC841442), AZD-1390 (NSC803789), olaparib (NSC753686), talazoparib (NSC767125), rucaparib (NSC756644), sotorasib (NSC818433), MRTX-1133 (NSC836407), SN-38 (NSC673596), topotecan (NSC609699), epotoside (NSC141540), doxorubicin (NSC123127), gemcitabine (NSC613327), 5-fluorouracil (NSC19893), paclitaxel (NSC125973), vemurafenib (NSC761431), MSA-2 (NSC828583), SN-011 (NSC837082), adavosertib (NSC754352), prexasertib (NSC758257), carboplatin (NSC241240) and oxaliplatin (NSC266046), were obtained from the National Cancer Institute (NCI) Developmental Therapeutics Program Chemical Repository (21). The FDA-approved anticancer drug set is available from the Developmental Therapeutics Program at https://dtp.cancer.gov/organization/dscb/obtaining/. […] The stock solutions were prepared in dimethyl sulfoxide (DMSO, Sigma-Aldrich, St. Louis, MO, cat. D2650), except for the platinum compounds which were prepared in saline (Quality Biological, Gaithersburg, MD, cat. 114-055-101), at 800-fold the tested concentration and stored at -70 degrees C prior to their use. All drugs and investigational agents were tested over a range starting from a high concentration at or near the clinical Cmax and decreasing in half-log increments. If the clinical Cmax for an agent had not been determined, the highest concentration tested was 10 microM, except for SN-38, which was tested at a high concentration of 1 microM.
Cell Culture. All cells were maintained in an incubator at 37 degrees C and 5% CO2 with 95% humidity. The PDC lines were cultured according to standard operating procedures established by the NCI PDMR (https://pdmr.cancer.gov). Table 3 of the manuscript, lists the cell lines along with the number of the three cell types plated to form the mct-spheroids and media for tumor cell growth. After thawing, all PDC lines, except 997537-175-T-J1-PDC and 415267-285-R-J2-PDC, were cultured in Matrigel-coated flasks prepared with a working solution of 1X Ham's F-12 nutrient mix, without supplementation (Thermo Fisher Scientific, cat. 11765054), 100 U/mL penicillin-streptomycin (Thermo Fisher Scientific, cat. 15140122), and 2.5% Matrigel (Corning Inc., Corning, NY, cat. 354248) for the first three passages. The two PDC lines 997537-175-T-J1-PDC and 415267-285-R-J2-PDC were cultured on uncoated flasks. The 857933-349-R-J2-PDC line was cultured in 6C/Colon 1B media containing advanced DMEM/F-12 (Thermo Fisher Scientific, cat. 12634028), 10 mM HEPES (Thermo Fisher Scientific, cat. 15630080), 1X GlutaMAX supplement (Thermo Fisher Scientific, cat. 35050061), 0.1 mg/mL primocin (InvivoGen, San Diego, CA, cat. ant-pm-2), 10% defined fetal bovine serum, heat inactivated (HyClone Laboratories Inc., Logan, UT, cat. SH30070.03HI), 50% L-WRN conditioned media (ATCC, cat. CRL-3276), 1.25 mM N-Acetyl-L-cysteine (Sigma-Aldrich, cat. A9165), 10 mM nicotinamide (Sigma-Aldrich, cat. N0636), 1X B-27 supplement (Thermo Fisher Scientific, cat. 17504044), 1X N-2 supplement (Thermo Fisher Scientific, cat. […]

[1] = second compound 0.0316 µM, first compound 0.00316 µM
[2] = second compound 0.0316 µM, first compound 0.01 µM
[3] = second compound 0.0316 µM, first compound 0.0316 µM
[4] = second compound 0.0316 µM, first compound 0.1 µM
[5] = second compound 0.1 µM, first compound 0.00316 µM
[6] = second compound 0.1 µM, first compound 0.01 µM
[7] = second compound 0.1 µM, first compound 0.0316 µM
[8] = second compound 0.1 µM, first compound 0.1 µM
[9] = second compound 0.316 µM, first compound 0.00316 µM
[10] = second compound 0.316 µM, first compound 0.01 µM
[11] = second compound 0.316 µM, first compound 0.0316 µM
[12] = second compound 0.316 µM, first compound 0.1 µM
[13] = second compound 1 µM, first compound 0.00316 µM
[14] = second compound 1 µM, first compound 0.01 µM
[15] = second compound 1 µM, first compound 0.0316 µM
[16] = second compound 1 µM, first compound 0.1 µM
[17] = second compound 3.16 µM, first compound 0.00316 µM
[18] = second compound 3.16 µM, first compound 0.01 µM
[19] = second compound 3.16 µM, first compound 0.0316 µM
[20] = second compound 3.16 µM, first compound 0.1 µM
[21] = second compound 10 µM, first compound 0.00316 µM
[22] = second compound 10 µM, first compound 0.01 µM
[23] = second compound 10 µM, first compound 0.0316 µM
[24] = second compound 10 µM, first compound 0.1 µM
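Also: spheroids exposed to drugs for seven days before measurement.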
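For viability, T/C in this document: percent viability relative to DMSO vehicle control wells taken as 100%.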

CC[C@@]1(O)C(=O)OCc2c1cc1n(c2=O)Cc2cc3c(CN(C)C)c(O)ccc3nc2-1 + Nc1ccc(C#CCN(C(=O)Cc2ncc(C(F)(F)F)cc2C(F)(F)F)c2ccc(F)cc2)nn1
7.82: pIC50 (second compound 0.316 µM)
7.81: pIC50 (second compound 1 µM)
active: viability, T/C [4] 10.1% | viability, T/C [8] 10.4% | viability, T/C [16] 12.3% | viability, T/C [20] 10.3% | viability, T/C [23] 8.55% | viability, T/C [24] 9.22%
inactive: viability, T/C (second compound 0.0316 µM, first compound 0.000316 µM) 105% | viability, T/C (second compound 0.0316 µM, first compound 0.001 µM) 106% | viability, T/C [1] 98.9% | viability, T/C [2] 73.7% | viability, T/C [3] 13.2% | viability, T/C (second compound 0.1 µM, first compound 0.000316 µM) 107% | viability, T/C (second compound 0.1 µM, first compound 0.001 µM) 104% | viability, T/C [5] 97.3% | viability, T/C [6] 73.2% | viability, T/C [7] 14.2% | viability, T/C (second compound 0.316 µM, first compound 0.000316 µM) 106% | viability, T/C (second compound 0.316 µM, first compound 0.001 µM) 102% | viability, T/C [9] 107% | viability, T/C [10] 71.2% | viability, T/C [11] 10.7% | viability, T/C [12] 12.3% | viability, T/C (second compound 1 µM, first compound 0.000316 µM) 111% | viability, T/C (second compound 1 µM, first compound 0.001 µM) 110% | viability, T/C [13] 94.5% | viability, T/C [14] 73.2% | viability, T/C [15] 13.2% | viability, T/C (second compound 3.16 µM, first compound 0.000316 µM) 111% | viability, T/C (second compound 3.16 µM, first compound 0.001 µM) 113% | viability, T/C [17] 98.7% | viability, T/C [18] 76.5% | viability, T/C [19] 11.9% | viability, T/C (second compound 10 µM, first compound 0.000316 µM) 122% | viability, T/C (second compound 10 µM, first compound 0.001 µM) 110% | viability, T/C [21] 104% | viability, T/C [22] 86.1%
7.76: pIC50 (second compound 10 µM)
7.80: pIC50 (second compound 0.0316 µM) | pIC50 (second compound 0.1 µM)
7.79: pIC50 (second compound 3.16 µM)

C=CCn1c(=O)c2cnc(Nc3ccc(N4CCN(C)CC4)cc3)nc2n1-c1cccc(C(C)(C)O)n1 + Cc1cccc(N(C)C(=O)C2C(O)CCN2c2nc(C)cc(C(F)(F)F)c2C#N)c1
6.33: pIC50 (second compound 0.0316 µM) | pIC50 (second compound 0.1 µM)
inactive: viability, T/C [1] 109% | viability, T/C [2] 103% | viability, T/C [3] 105% | viability, T/C [4] 106% | viability, T/C (second compound 0.0316 µM, first compound 0.316 µM) 71.5% | viability, T/C [5] 98% | viability, T/C [6] 104% | viability, T/C [7] 102% | viability, T/C [8] 108% | viability, T/C (second compound 0.1 µM, first compound 0.316 µM) 70.7% | viability, T/C [9] 96.6% | viability, T/C [10] 98.9% | viability, T/C [11] 103% | viability, T/C [12] 103% | viability, T/C (second compound 0.316 µM, first compound 0.316 µM) 68.4% | viability, T/C [13] 113% | viability, T/C [14] 97.3% | viability, T/C [15] 104% | viability, T/C [16] 110% | viability, T/C (second compound 1 µM, first compound 0.316 µM) 74.1% | viability, T/C [17] 112% | viability, T/C [18] 106% | viability, T/C [19] 99.7% | viability, T/C [20] 102% | viability, T/C (second compound 3.16 µM, first compound 0.316 µM) 72.8% | viability, T/C [21] 105% | viability, T/C [22] 105% | viability, T/C [23] 97% | viability, T/C [24] 98.8% | viability, T/C (second compound 10 µM, first compound 0.316 µM) 68.5%
active: viability, T/C (second compound 0.0316 µM, first compound 1 µM) 9.25% | viability, T/C (second compound 0.1 µM, first compound 1 µM) 8.44% | viability, T/C (second compound 0.316 µM, first compound 1 µM) 7.81% | viability, T/C (second compound 1 µM, first compound 1 µM) 7.99% | viability, T/C (second compound 3.16 µM, first compound 1 µM) 9.03% | viability, T/C (second compound 10 µM, first compound 1 µM) 8.81%
6.34: pIC50 (second compound 10 µM)
6.35: pIC50 (second compound 0.316 µM)
6.32: pIC50 (second compound 1 µM) | pIC50 (second compound 3.16 µM)

Source: PubChem BioAssay AID1963846 (Molecular Pharmacology Branch, DTP, NCI, 2024)
